From patent US20190314311A1, “PHARMACEUTICAL COMPOSITION” (JAPAN SCIENCE AND TECHNOLOGY AGENCY, priority 2016, published 2019)

Columns and labels:
Type in all cases: biochemical
[1] = system: abnormally expanded PolyQ protein; assay: in vitro screening assay of abnormally expanded PolyQ protein aggregation by the turbidity method; conditions: screening of PolyQ aggregation inhibiting compounds
From the text: The present inventors established an in vitro screening assay system capable of conveniently evaluating the aggregation of abnormally expanded PolyQ protein by the turbidity method (U.S. Pat. No. 6,632,616).

Thio-Q62 protein [2] = assay: seed-induced polyQ aggregation reaction (turbidity); conditions: 10 μM Thio-Q62 + seeds, 400 mM arginine or proline, 37° C., 7 days
Experimental: (§1) A solution in which abnormally expanded proteins were dissolved in physiological saline phosphate (PBS) was used as a measurement sample. The solution was incubated at 37° C., and turbidity at 405 nm was measured every 24 hours using a microplate reader “Spectramax Plus plate reader” (Molecular Devices Inc.).

Thio-Q62 protein [3] = assay: protein aggregation turbidity assay; conditions: 10 μM thio-Q62, PBS, 37° C.; arginine 100, 200 or 400 mM; proline 400 mM; Thio-Q62 alone = 100%
Experimental: In the subsequent experiments, the protein aggregation turbidity assay was performed by the method described in Non-Patent Document 6. Specifically, it was performed as follows.
as §1
As an abnormally expanded PolyQ protein, a Thioredoxin-Q62 (Thio-Q62) fusion protein consisting of Thioredoxin and a PolyQ stretch with 62 glutamines was used.
As a control, Thio-Q62 protein alone was incubated in the same manner, and the turbidity was measured every 24 hours.
As controls, a solution containing Thio-Q62 protein alone, and a solution containing Thio-Q62 protein and 400 mM proline were incubated in the same manner, respectively, and turbidity was measured after 5 days. […] The relative turbidity (%) of each solution was measured. The turbidity of the solution containing Thio-Q62 protein alone was set to 100%. In the figure, values represent means±SEM (n=3). “*” represents p<0.05, “***” represents p<0.001, “n.s.” represents not significant.

O=C(O)[C@@H]1CCCN1 [proline, reference compound]
PolyQ aggregation inhibitory activity [1]: no PolyQ aggregation-inhibitory effect
seed-induced increase in turbidity (Thio-Q62 protein [2]): the effects as observed with arginine was not obtained
relative turbidity after 5 days (Thio-Q62 protein [3]): did not exert any anti-aggregation effect
